From ChEMBL document CHEMBL5543143, “Potentiating Activity of GmhA Inhibitors on Gram-Negative Bacteria” (J Med Chem, 2024)
The source made the active and inactive calls. No cut-off for these calls is given here.

Key:
HepG2 = assay: Cytotoxicity against human HepG2 cells incubated overnight by Celltiter aqueous one solution cell proliferation assay; format: functional
Phosphoheptose isomerase = Phosphoheptose isomerase (Escherichia coli (strain K12), UniProt P63224); parameters: species or system K96243
Escherichia coli [1] = assay: Potentiation of rifampicin induced antibacterial activity against Escherichia coli C7 (018:K1:H7) assessed as rifampicin MIC incubated overnight by two fold serial dilution assay; format: functional
Escherichia coli [2] = assay: Antibacterial activity in Escherichia coli C7 (018:K1:H7) assessed as reduction in bacterial growth at 300 uM measured after 24 hrs by time-kill kinetics assay; format: functional, organism-based
Escherichia coli [3] = assay: Potentiation of erythromycin induced antibacterial activity against Escherichia coli C7 (018:K1:H7) assessed as erythromycin MIC incubated overnight by two fold serial dilution assay; format: functional

Sequence of Phosphoheptose isomerase (P63224 whole entry, looked up): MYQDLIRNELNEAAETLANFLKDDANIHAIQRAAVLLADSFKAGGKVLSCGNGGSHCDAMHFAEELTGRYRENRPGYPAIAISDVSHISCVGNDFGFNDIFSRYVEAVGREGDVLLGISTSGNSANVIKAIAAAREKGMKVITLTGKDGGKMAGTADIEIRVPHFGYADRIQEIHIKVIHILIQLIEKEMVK

O=CN(O)C[C@H](O)[C@H](O)[C@H](O)COP(=O)(O)O
CC50 (HepG2): > 1000 µM | IC50 (Phosphoheptose isomerase): 0.002 µM | MIC (Escherichia coli [1]): 0.25 µg/mL | Activity (Escherichia coli [2]): inactive | MIC (Escherichia coli [3]): 1 µg/mL

O=CN(O)C[C@H](O)[C@H](O)[C@H](O)CCP(=O)(O)O
CC50 (HepG2): > 1000 µM
